From ChEMBL document CHEMBL4390668, “Discovery and Structural Optimization of Acridones as Broad-Spectrum Antimalarials” (J Med Chem, 2019)
Active and inactive are the calls of the source. The calls are words filed in the database; no cut-off is given here.

Legend:
[1] = Mean residence time in ICR mouse plasma at 80 mg/kg, po administered as single dose; format: ADME, organism-based
[2] = Apparent volume of distribution in ICR mouse plasma at 80 mg/kg, po administered as single dose; format: ADME, organism-based; conditions: in vivo
[3] = system: Plasmodium berghei; experiment: (§1) Antimalarial activity against blood stage luciferase-expressing Plasmodium berghei ANKA 676m1cl1 sporozoites infected in C57BL/6 mouse assessed as suppression of parasitemia at 25 mg/kg, po pretreated for 1 day followed by parasite infection and subsequent compound dosing for 2 days measured up to 30 days post-infection by YOYO1 staining based flow cytometry; format: functional
[4] = Cmax in ICR mouse plasma at 80 mg/kg, po administered as single dose; format: ADME, organism-based; design: dose 80 mg/kg, route oral
[5] = Tmax in ICR mouse plasma at 80 mg/kg, po administered as single dose; format: ADME, organism-based
[6] = AUC (0 to last) in ICR mouse plasma at 80 mg/kg, po administered as single dose; format: ADME, organism-based; design: dose 80 mg/kg, route oral, time 0 - last
[7] = AUC (0 to infinity) in ICR mouse plasma at 80 mg/kg, po administered as single dose; format: ADME, organism-based; design: dose 80 mg/kg, route oral, time infinity; conditions: for AUC: in vivo
[8] = Cmax in ICR mouse liver at 80 mg/kg, po administered as single dose; format: ADME, organism-based; design: dose 80 mg/kg, route oral
[9] = Tmax in ICR mouse liver at 80 mg/kg, po administered as single dose; format: ADME, organism-based
[10] = AUC (0 to last) in ICR mouse liver at 80 mg/kg, po administered as single dose; format: ADME, organism-based; design: dose 80 mg/kg, route oral, time 0 - last
[11] = AUC (0 to infinity) in ICR mouse liver at 80 mg/kg, po administered as single dose; format: ADME, organism-based; design: dose 80 mg/kg, route oral, time infinity
[12] = Apparent volume of distribution in ICR mouse liver at 80 mg/kg, po administered as single dose; format: ADME, organism-based; conditions: in vivo
[13] = Mean residence time in ICR mouse liver at 80 mg/kg, po administered as single dose; format: ADME, organism-based
[14] = Apparent elimination half life in ICR mouse plasma at 80 mg/kg, po administered as single dose; format: ADME, organism-based
[15] = system: Plasmodium yoelii; experiment: (§2) Antimalarial activity against blood stage Plasmodium yoelii MR4 MRA-428 infected in CF1 mouse assessed as suppression of parasitemia administered once daily via oral gavage for 4 days starting from 24 hrs post-infection and measured post-last dose by Giemsa-staining based microscopic analysis; format: functional
[16] = system: Plasmodium falciparum; experiment: Antimalarial activity against chloroquine-sensitive Plasmodium falciparum D6 infected in human erythrocytes by SYBR green 1-based fluorescence assay; format: functional, organism-based
[17] = system: Plasmodium falciparum; experiment: Antimalarial activity against multidrug-resistant Plasmodium falciparum Dd2 infected in human erythrocytes by SYBR green 1-based fluorescence assay; format: functional, organism-based
[18] = system: Plasmodium falciparum; experiment: Antimalarial activity against multidrug-resistant Plasmodium falciparum 7G8 infected in human erythrocytes by SYBR green 1-based fluorescence assay; format: functional, organism-based
[19] = system: Plasmodium falciparum; experiment: Antimalarial activity against atovaquone-resistant Plasmodium falciparum Tm90-C2B infected in human erythrocytes by SYBR green 1-based fluorescence assay; format: functional, organism-based
[20] = system: HepG2; experiment: Cytotoxicity against human HepG2 cells measured after 24 to 36 hrs by resazurin dye based fluorescence assay; format: cell-based
[21] = Selectivity index, ratio of IC50 for human HepG2 cells to IC50 for chloroquine-sensitive Plasmodium falciparum D6 infected in human erythrocytes; format: toxicity, cell-based; conditions: read-out: Ratio IC50
[22] = system: Plasmodium berghei; experiment: Antimalarial activity against luciferase-expressing Plasmodium berghei ANKA 676m1cl1 sporozoites infected in human HepG2A16 cells measured after 45 hrs by luciferase-luciferin based reporter assay; format: functional, organism-based; conditions: ANKA 676m1cl1, HepG2A16, 45 h
[23] = system: Plasmodium yoelii; experiment: as §2, with “parasitemia at 80 mg/kg, po” for “parasitemia”, “via” for “via oral”, “at weekly intervals for 28 days” for “post-last dose”; format: functional
[24] = Toxicity in CF1 mouse infected with blood stage Plasmodium yoelii MR4 MRA-428 assessed as clinical toxicity at 80 mg/kg, po administered once daily via gavage for 4 days starting from for 4 days starting from 24 hrs post-infection and measured daily during compound dosing; format: organism-based; conditions: in vivo
[25] = Toxicity in CF1 mouse infected with blood stage Plasmodium yoelii MR4 MRA-428 assessed as behavioral changes at 80 mg/kg, po administered once daily via gavage for 4 days starting from for 4 days starting from 24 hrs post-infection and measured daily during compound dosing; format: organism-based; conditions: in vivo
[26] = system: Plasmodium berghei; experiment: Antimalarial activity against liver stage luciferase-expressing Plasmodium berghei ANKA 676m1cl1 sporozoites infected in C57BL/6 mouse assessed as suppression of parasitemia at 10 mg/kg, po pretreated for 1 day followed by parasite infection and subsequent compound dosing for 2 days measured at 24 to 48 hrs post-infection by luciferin-based real-time imaging analysis; format: functional
[27] = system: Plasmodium berghei; experiment: as §1, with “10” for “25”; format: functional
[28] = target: hERG (KCNH2) (Homo sapiens, UniProt Q12809); experiment: Inhibition of human ERG expressed in CHOK1 cells at 10 uM by automated patch clamp method relative to control; format: cell-based; conditions: CHO-K1 cells that express hERG
Sequence of hERG (KCNH2) (Q12809 whole entry): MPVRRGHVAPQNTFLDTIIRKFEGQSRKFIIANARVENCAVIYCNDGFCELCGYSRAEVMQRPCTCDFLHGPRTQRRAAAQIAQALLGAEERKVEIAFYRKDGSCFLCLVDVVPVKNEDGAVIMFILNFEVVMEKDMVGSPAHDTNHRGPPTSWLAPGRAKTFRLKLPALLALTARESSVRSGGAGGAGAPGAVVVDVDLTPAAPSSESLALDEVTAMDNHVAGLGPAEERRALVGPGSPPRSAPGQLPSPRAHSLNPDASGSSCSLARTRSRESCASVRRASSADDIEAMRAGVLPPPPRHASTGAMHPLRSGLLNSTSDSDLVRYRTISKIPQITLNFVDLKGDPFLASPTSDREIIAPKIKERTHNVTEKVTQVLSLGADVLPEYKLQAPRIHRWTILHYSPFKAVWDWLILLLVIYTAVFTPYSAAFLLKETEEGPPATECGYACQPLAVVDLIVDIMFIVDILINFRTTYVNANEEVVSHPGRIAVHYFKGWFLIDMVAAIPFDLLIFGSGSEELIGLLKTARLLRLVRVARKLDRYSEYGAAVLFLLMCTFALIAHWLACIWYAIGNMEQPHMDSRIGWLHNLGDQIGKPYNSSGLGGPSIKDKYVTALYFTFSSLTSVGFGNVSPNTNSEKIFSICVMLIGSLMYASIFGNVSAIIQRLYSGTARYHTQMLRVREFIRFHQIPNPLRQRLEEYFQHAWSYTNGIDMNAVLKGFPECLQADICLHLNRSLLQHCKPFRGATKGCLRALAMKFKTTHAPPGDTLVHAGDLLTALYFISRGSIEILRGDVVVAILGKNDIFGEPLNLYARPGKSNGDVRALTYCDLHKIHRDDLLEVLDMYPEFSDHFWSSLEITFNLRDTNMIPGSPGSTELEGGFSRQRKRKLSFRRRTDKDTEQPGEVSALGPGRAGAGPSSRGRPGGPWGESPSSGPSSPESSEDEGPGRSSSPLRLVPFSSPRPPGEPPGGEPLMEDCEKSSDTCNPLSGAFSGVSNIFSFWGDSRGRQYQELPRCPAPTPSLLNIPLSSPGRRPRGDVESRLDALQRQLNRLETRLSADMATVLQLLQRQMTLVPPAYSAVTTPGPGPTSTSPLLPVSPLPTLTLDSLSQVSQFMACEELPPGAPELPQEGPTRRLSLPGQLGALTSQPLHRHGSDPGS

[29] = Half life in human liver microsomes at 1 uM by LC-MS analysis; format: ADME, Microsome
[30] = Mutagenicity in Salmonella typhimurium TA100 assessed as increase in revertant colonies up to 10 uM in presence of S9 fraction by Ames test; format: toxicity, subcellular; conditions: salmonella enterica subsp. enterica serovar typhimurium
[31] = Mutagenicity in Salmonella typhimurium TA100 assessed as increase in revertant colonies up to 10 uM in absence of S9 fraction by Ames test; format: toxicity; conditions: salmonella enterica subsp. enterica serovar typhimurium
[32] = Mutagenicity in Salmonella typhimurium TA98 assessed as increase in revertant colonies up to 10 uM in presence of S9 fraction by Ames test; format: toxicity, subcellular; conditions: salmonella enterica subsp. enterica serovar typhimurium
[33] = Mutagenicity in Salmonella typhimurium TA98 assessed as increase in revertant colonies up to 10 uM in absence of S9 fraction by Ames test; format: toxicity; conditions: salmonella enterica subsp. enterica serovar typhimurium
[34] = Half life in mouse liver microsomes at 1 uM by LC-MS analysis; format: ADME, Microsome
[35] = Apparent elimination half life in ICR mouse liver at 80 mg/kg, po administered as single dose; format: ADME, organism-based; conditions: read-out: betat1/2(app) (converted)
[36] = system: Plasmodium falciparum; experiment: Antimalarial activity against drug-resistant Plasmodium falciparum Dd2 harboring V259L mutant infected in human erythrocytes after 72 hrs by SYBR green 1-based fluorescence assay; format: functional, organism-based; conditions: Dd2, 72 h
[37] = system: Plasmodium falciparum; experiment: Antimalarial activity against drug-resistant Plasmodium falciparum Dd2 harboring M133I/A138T double mutant infected in human erythrocytes after 72 hrs by SYBR green 1-based fluorescence assay; format: functional, organism-based; conditions: Dd2, 72 h
[38] = system: Plasmodium falciparum; experiment: Antimalarial activity against Plasmodium falciparum 3D7 infected in human erythrocytes after 72 hrs by SYBR green 1-based fluorescence assay; format: functional, organism-based; conditions: 3D7, 72 h
[39] = system: Plasmodium falciparum; experiment: Antimalarial activity against drug-resistant Plasmodium falciparum 3D7 harboring A82T/V259L double mutant infected in human erythrocytes after 72 hrs by SYBR green 1-based fluorescence assay; format: functional, organism-based; conditions: 3D7, 72 h
[40] = system: Plasmodium falciparum; experiment: Inhibition of Plasmodium falciparum cytochrome b-c1
[41] = Apparent clearance in ICR mouse plasma at 80 mg/kg, po administered as single dose; format: ADME, organism-based; conditions: read-out: CL(app) (converted)

COc1cc(NC(C)CCCN)c2ncccc2c1 (stereo not given) [PRIMAQUINE]
MRT [1]: 2.3 h | Vz [2]: 43.801 L/kg | Activity [3]: 100% | Cmax ([4]; ICR, plasma, read-out: Cmax): 531 ng/mL | Tmax ([5]; ICR, plasma, read-out: Tmax): 0.5 h | AUC(0-t) [6]: 1260 ng·h/mL | AUC [7]: 1314 ng·h/mL | Cmax [8]: 8150 ng/mL | Tmax [9]: 0.5 h | AUC(0-t) [10]: 27400 ng·h/mL | AUC(0-inf) [11]: 27700 ng·h/mL | Vz [12]: 4.418 L/kg | MRT [13]: 4.5 h

CCCN(CCC)CCOc1ccc2c(=O)c3c(F)cc(F)cc3[nH]c2c1
MRT [1]: 10.2 h | Vz [2]: 657.604 L/kg | betat1/2(app) ([14]; in vivo): 54.24 h | ED50 [15]: 1.12 mg/kg.day | IC50 [16]: 0.0003 nM | IC50 [17]: 0.0003 to 0.23 nM | IC50 [18]: 0.0003 nM | IC50 [19]: 6.8 nM | IC50 [20]: 42800 nM | selectivity ratio [21]: > 100000 | IC50 [22]: 1.4 nM | Activity [23]: 100% | Activity [24]: Non-Toxic | Activity [25]: Non-Toxic | Activity [26]: 100% | Activity [27]: 100% | inhibition at 10 µM [28]: 65% | half-life at 1 µM [29]: 0.267 h | Activity [30]: Non-Toxic | Activity [31]: Non-Toxic | Activity [32]: Non-Toxic | Activity [33]: Non-Toxic | half-life at 1 µM [34]: 0.25 h | Cmax ([4]; in vivo): 99 ng/mL | Tmax ([5]; in vivo): 7 h | AUC(0-t) [6]: 7560 ng·h/mL | AUC [7]: 56485 ng·h/mL | Cmax [8]: 3930 ng/mL | Tmax [9]: 7 h | AUC(0-t) [10]: 63900 ng·h/mL | AUC(0-inf) [11]: 102000 ng·h/mL | half-life [35]: 13.8 h | MRT [13]: 8.9 h | IC50 [36]: 5.5 nM | IC50 [37]: 0.86 nM | IC50 [38]: 0.3 nM | IC50 [39]: 17 nM | inhibition [40]: inactive

CCCN(CCC)CCOc1ccc2c(=O)c3c(Cl)c(Cl)ccc3[nH]c2c1
MRT [1]: 4.69 h | Vz [2]: 58.684 L/kg | half-life ([14]; ICR, plasma, read-out: betat1/2(app) (converted)): 2.29 h | ED50 [15]: 1.04 mg/kg.day | ED90 [15]: 1.14 mg/kg.day | IC50 [16]: 0.17 nM | IC50 [17]: 0.05 to 9 nM | IC50 [18]: 0.3 nM | IC50 [19]: 142 nM | IC50 [20]: 41600 nM | selectivity ratio [21]: 245000 | IC50 [22]: 1.1 nM | Activity [23]: 100% | Activity [24]: Non-Toxic | Activity [25]: Non-Toxic | Activity [26]: 100% | Activity [27]: 100% | inhibition at 10 µM [28]: 25% | half-life at 1 µM [29]: 0.183 h | Activity [30]: Non-Toxic | Activity [31]: Non-Toxic | Activity [32]: Non-Toxic | Activity [33]: Non-Toxic | half-life at 1 µM [34]: 0.283 h | Cmax ([4]; ICR, plasma, read-out: Cmax): 631 ng/mL | Tmax ([5]; ICR, plasma, read-out: Tmax): 5.5 h | AUC(0-t) [6]: 3840 ng·h/mL | AUC(0-inf) ([7]; ICR, plasma): 4520 ng·h/mL | CL/F [41]: 295 mL/min/kg | Cmax [8]: 42300 ng/mL | Tmax [9]: 7 h | AUC(0-t) [10]: 547000 ng·h/mL | AUC(0-inf) [11]: 547000 ng·h/mL | half-life [35]: 1.84 h | MRT [13]: 6.07 h | IC50 [36]: 216 nM | IC50 [37]: 50 nM | IC50 [39]: 79 nM | inhibition [40]: inactive
